Residues, ends and D or L forms follow the SMILES beside them. No end group written: not given here.
How the values were obtained:
Type in all cases: cell-based
[1] = tested on: Escherichia coli [KCTC 1682]; settings: KCTC 1682, 24 h
Method: (§1) The MICs of the peptides were measured by the Clinical and Laboratory Standards Institute (CLSI) broth microdilution method, as outlined in a previous study.^[ [26], [27] ^]
(§2) Minimal Inhibitory Concentrations (MICs): Bacteria were grown to mid-logarithmic phase and diluted in Mueller-Hinton broth (MHB) (Difco). The bacterial suspension (1×10^6 CFU/well) was added to a 96-well microtiter plate along with a two-fold serial dilution of samples. The plate was incubated at 37 °C for 24 hours and the bacterial growth inhibition was assessed by measuring the optical density using an ELISA plate reader. The minimum inhibitory concentration (MIC) was defined as the lowest concentration of samples that prevented visible bacterial growth.

[2] = tested on: Pseudomonas aeruginosa [KCTC 1637]; settings: KCTC 1637, 24 h
Method: as §1, §2

[3] = tested on: Staphylococcus aureus [KCTC1621]; settings: KCTC1621, 24 h
Method: as §1, §2

[4] = tested on: Staphylococcus epidermidis [KCTC 1917]; settings: KCTC 1917, 24 h
Method: as §1, §2

| Compound | Minimum inhibitory concentration (MIC), Escherichia coli [KCTC 1682] [1] [µg/mL] | Minimum inhibitory concentration (MIC), Pseudomonas aeruginosa [KCTC 1637] [2] [µg/mL] | Minimum inhibitory concentration (MIC), Staphylococcus aureus [KCTC1621] [3] [µg/mL] | Minimum inhibitory concentration (MIC), Staphylococcus epidermidis [KCTC 1917] [4] [µg/mL] |
| --- | --- | --- | --- | --- |
| LSKGGFKGKPERAMAHHLKNIRKKLSKSIMKS [LP6] | >128 | >128 | >128 | >128 |
| VLNVQSIMSWNKRVGGMILNLKT [LP11] | >128 | >128 | >128 | >128 |
| MANPVNSIKRIIKKLKKERKCKPNL [LP18] | >128 | >128 | >128 | >128 |
| CC(C)C[C@H](NC(=O)[C@H](Cc1ccc(O)cc1)NC(=O)[C@H](CCCCN)NC(=O)[C@H](CCCNC(=N)N)NC(=O)[C@H](CCCNC(=N)N)NC(=O)[C@H](CCC(N)=O)NC(=O)[C@@H](NC(=O)[C@H](CC(N)=O)NC(=O)[C@H](CCCNC(=N)N)NC(=O)CNC(=O)[C@@H](NC(=O)[C@H](CS)NC(=O)[C@@H]1CCCN1C(=O)[C@H](CCCCN)NC(=O)[C@H](CO)NC(=O)[C@H](CC(N)=O)NC(=O)[C@H](CC(C)C)NC(=O)[C@H](CCCCN)NC(=O)[C@H](CS)NC(=O)[C@H](CCC(N)=O)NC(=O)[C@H](CCCNC(=N)N)NC(=O)[C@H](CCC(=O)O)NC(=O)[C@H](CCCNC(=N)N)NC(=O)[C@@H](NC(=O)[C@H](Cc1c[nH]c2ccccc12)NC(=O)[C@H](Cc1ccc(O)cc1)NC(=O)CNC(=O)[C@@H](NC(=O)[C@@H](NC(=O)[C@H](CC(=O)O)NC(=O)[C@@H](N)CCCCN)C(C)C)[C@@H](C)O)C(C)C)C(C)C)[C@@H](C)O)C(=O)N[C@@H](CC(N)=O)C(=O)N[C@@H](CCCCN)C(N)=O [LP4] (H-KDVTGYWVRERQCKLNSKPCVGRNTQRRKYLNK-NH2; N-terminus and C-terminus assumed) | >128 | >128 | >128 | >128 |
| CC[C@H](C)[C@H](NC(=O)[C@@H]1CCCN1C(=O)[C@H](Cc1ccccc1)NC(=O)[C@H](CCC(N)=O)NC(=O)[C@H](CO)NC(=O)[C@H](CCCNC(=N)N)NC(=O)[C@@H](N)Cc1ccccc1)C(=O)N[C@@H](CS)C(=O)N[C@@H](CCCCN)C(=O)N[C@@H](CC(N)=O)C(=O)N[C@@H](CC(C)C)C(=O)N[C@H](C(=O)N[C@@H](CC(N)=O)C(=O)N[C@@H](Cc1c[nH]cn1)C(=O)N[C@H](C(=O)N[C@@H](CCCCN)C(=O)N[C@@H](Cc1ccccc1)C(=O)N[C@H](C(=O)N[C@@H](CS)C(=O)N[C@@H](CCC(N)=O)C(=O)N[C@@H](CCCCN)C(=O)N[C@@H](CCCCN)C(=O)N1CCC[C@H]1C(=O)N[C@@H](CC(C)C)C(=O)N[C@@H](CO)C(=O)N[C@@H](CCCCN)C(=O)N[C@@H](CC(C)C)C(=O)N[C@@H](CCSC)C(=O)N[C@@H](CCCCN)C(=O)N[C@@H](CS)C(=O)N[C@@H](CCCCN)C(=O)N[C@@H](CCCCN)C(=O)N[C@@H](C)C(=O)N[C@@H](CC(C)C)C(=O)N[C@@H](CC(=O)O)C(=O)N[C@@H](CCCNC(=N)N)C(=O)O)C(C)C)[C@@H](C)O)C(C)C [LP16] (H-FRSQFPICKNLVNHTKFVCQKKPLSKLMKCKKALDR-OH) | >128 | >128 | >128 | >128 |

Now from value to compound:

| Minimum inhibitory concentration (MIC), Escherichia coli [KCTC 1682] [1] [µg/mL] | Minimum inhibitory concentration (MIC), Pseudomonas aeruginosa [KCTC 1637] [2] [µg/mL] | Minimum inhibitory concentration (MIC), Staphylococcus aureus [KCTC1621] [3] [µg/mL] | Minimum inhibitory concentration (MIC), Staphylococcus epidermidis [KCTC 1917] [4] [µg/mL] | Compound |
| --- | --- | --- | --- | --- |
| >128 | >128 | >128 | >128 | CC[C@H](C)[C@H](NC(=O)[C@H](CO)NC(=O)[C@H](CCCNC(=N)N)NC(=O)[C@H](C)N)C(=O)N[C@@H](CCCCN)C(=O)N[C@@H](CCCCN)C(=O)N[C@H](C(=O)N[C@H](C(=O)N[C@@H](Cc1ccccc1)C(=O)N[C@@H](CO)C(=O)N[C@@H](CO)C(=O)N[C@@H](CO)C(=O)N[C@@H](CO)C(=O)N[C@@H](CCCNC(=N)N)C(=O)N[C@H](C(=O)N[C@@H](CS)C(=O)N1CCC[C@H]1C(=O)N1CCC[C@H]1C(=O)N[C@@H](CC(C)C)C(=O)N[C@@H](CCCCN)C(=O)N[C@@H](CCSC)C(=O)N[C@@H](CC(C)C)C(=O)N[C@@H](CCCCN)C(=O)N[C@@H](CC(C)C)C(=O)N[C@@H](CCCNC(=N)N)C(=O)N1CCC[C@H]1C(=O)N[C@@H](CS)C(=O)N[C@@H](Cc1ccccc1)C(=O)N[C@@H](CCCCN)C(=O)N[C@@H](CCCCN)C(=O)N[C@H](C(=O)N1CCC[C@H]1C(=O)N[C@@H](CCCCN)C(=O)N[C@@H](CC(C)C)C(=O)N[C@@H](CC(=O)O)C(=O)NCC(=O)N[C@@H](CCC(N)=O)C(=O)O)C(C)C)C(C)C)[C@@H](C)CC)C(C)C [LP15] (H-ARSIKKVIFSSSSRVCPPLKMLKLRPCFKKVPKLDGQ-OH; N-terminus and C-terminus assumed) |
| >128 | >128 | >128 | >128 | LLAHVSKGFKLSMQKSKKPSLPIKT-NH2 [LP5] |
| >128 | >128 | >128 | >128 | KLTPKPAKKVKKVVKF [LP1] |
